Laboratory results: patent publication US8183262B2, “Pyridine derivatives as mGluR2 antagonists” (Hoffmann-La Roche Inc., priority 2007, dated 2012)

| SMILES | melting point [°C] |
| --- | --- |
| O=S(=O)(c1cccc(-c2cc(-c3nc(-c4ccc(C(F)(F)F)cc4)cc(C(F)(F)F)n3)ccn2)c1)N1CCC(O)C1 (racemic) [Example 407, (RS)-1-(3-{4-[4-Trifluoromethyl-6-(4-trifluoromethyl-phenyl)-pyrimidin-2-yl]-pyridin-2-yl}-benzenesulfonyl)-pyrrolidin-3-ol] | 234 |
| FC(F)(F)c1ccc(-c2cc(C(F)(F)F)nc(-n3cccc3)n2)cc1 [Example 4, 2-Pyrrol-1-yl-4-trifluoromethyl-6-(4-trifluoromethyl-phenyl)-pyrimidine] | 120.5 |
| FC(F)(F)c1cc(-c2ccc(Cl)cc2)nc(-n2cccc2)n1 [Example 6, 4-(4-Chloro-phenyl)-2-pyrrol-1-yl-6-trifluoromethyl-pyrimidine] | 128.5 |
| FC(F)(F)c1cc(-c2ccc(Cl)cc2)nc(-n2cnc(-c3cccnc3)c2)n1 [Example 7, 4-(4-Chloro-phenyl)-2-(4-pyridin-3-yl-imidazol-1-yl)-6-trifluoromethyl-pyrimidine] | 228 |
| Nc1ccc(-c2noc(-c3nc(-c4ccc(Cl)cc4)cc(C(F)(F)F)n3)n2)cn1 [Example 9, 5-{5-[4-(4-Chloro-phenyl)-6-trifluoromethyl-pyrimidin-2-yl]-[1,2,4]oxadiazol-3-yl}-pyridin-2-ylamine] | 211 |
| Nc1cc(-c2noc(-c3nc(-c4ccc(C(F)(F)F)cc4)cc(C(F)(F)F)n3)n2)ccn1 [Example 12, 4-{5-[4-Trifluoromethyl-6-(4-trifluoromethyl-phenyl)-pyrimidin-2-yl]-[1,2,4]oxadiazol-3-yl}-pyridin-2-ylamine] | 223.5 |
| Nc1ccc(-c2cn(-c3nc(-c4ccc(C(F)(F)F)cc4)cc(C(F)(F)F)n3)cn2)cn1 [Example 13, 5-{1-[4-Trifluoromethyl-6-(4-trifluoromethyl-phenyl)-pyrimidin-2-yl]-1H-imidazol-4-yl}-pyridin-2-ylamine] | 286 |
| Nc1ccc(-c2cn(-c3nc(-c4ccc(Cl)cc4)cc(C(F)(F)F)n3)cn2)cn1 [Example 14, 5-{1-[4-(4-Chloro-phenyl)-6-trifluoromethyl-pyrimidin-2-yl]-1H-imidazol-4-yl}-pyridin-2-ylamine] | 254 |
| NS(=O)(=O)c1ccc(-c2noc(-c3nc(-c4ccc(C(F)(F)F)cc4)cc(C(F)(F)F)n3)n2)cc1 [Example 15, 4-{5-[4-Trifluoromethyl-6-(4-trifluoromethyl-phenyl)-pyrimidin-2-yl]-[1,2,4]oxadiazol-3-yl}-benzenesulfonamide] | 302 |
| NS(=O)(=O)c1cccc(-c2noc(-c3nc(-c4ccc(C(F)(F)F)cc4)cc(C(F)(F)F)n3)n2)c1 [Example 16, 3-{5-[4-Trifluoromethyl-6-(4-trifluoromethyl-phenyl)-pyrimidin-2-yl]-[1,2,4]oxadiazol-3-yl}-benzenesulfonamide] | 204 |
| NS(=O)(=O)c1ccc(-c2noc(-c3nc(-c4ccc(Cl)cc4)cc(C(F)(F)F)n3)n2)cc1 [Example 17, 4-{5-[4-(4-Chloro-phenyl)-6-trifluoromethyl-pyrimidin-2-yl]-[1,2,4}oxadiazol-3-yl]-benzenesulfonamide] | 289.5 |
| NS(=O)(=O)c1cccc(-c2noc(-c3nc(-c4ccc(Cl)cc4)cc(C(F)(F)F)n3)n2)c1 [Example 18, 3-{5-[4-(4-Chloro-phenyl)-6-trifluoromethyl-pyrimidin-2-yl]-[1,2,4}oxadiazol-3-yl]-benzenesulfonamide] | 231 |
| Nc1ccc(-c2cnn(-c3nc(-c4ccc(C(F)(F)F)cc4)cc(C(F)(F)F)n3)c2)cn1 [Example 19, 5-{1-[4-Trifluoromethyl-6-(4-trifluoromethyl-phenyl)-pyrimidin-2-yl]-1H-pyrazol-4-yl}-pyridin-2-ylamine] | 206 |
| Nc1ncc(-c2noc(-c3nc(-c4ccc(C(F)(F)F)cc4)cc(C(F)(F)F)n3)n2)cn1 [Example 20, 5-{5-[4-Trifluoromethyl-6-(4-trifluoromethyl-phenyl)-pyrimidin-2-yl]-[1,2,4]oxadiazol-3-yl}-pyrimidin-2-ylamine] | 216 |
| Nc1ccc(-c2nc(-c3nc(-c4ccc(C(F)(F)F)cc4)cc(C(F)(F)F)n3)no2)cn1 [Example 21, 5-{3-[4-Trifluoromethyl-6-(4-trifluoromethyl-phenyl)-pyrimidin-2-yl]-[1,2,4]oxadiazol-5-yl}-pyridin-2-ylamine] | 205 |
| Nc1ccc(-c2nc(-c3nc(-c4ccc(Cl)cc4)cc(C(F)(F)F)n3)no2)cn1 [Example 22, 5-{3-[4-(4-Chloro-phenyl)-6-trifluoromethyl-pyrimidin-2-yl]-[1,2,4]oxadiazol-5-yl}-pyridin-2-ylamine] | 191 |
| NS(=O)(=O)c1ccc(-c2nc(-c3nc(-c4ccc(C(F)(F)F)cc4)cc(C(F)(F)F)n3)no2)s1 [Example 23, 5-{3-[4-Trifluoromethyl-6-(4-trifluoromethyl-phenyl)-pyrimidin-2-yl]-[1,2,4]oxadiazol-5-yl}-thiophene-2-sulfonic acid amide] | 258.5 |
| NS(=O)(=O)c1ccc(-c2nc(-c3nc(-c4ccc(Cl)cc4)cc(C(F)(F)F)n3)no2)s1 [Example 24, 5-{3-[4-(4-Chloro-phenyl)-6-trifluoromethyl-pyrimidin-2-yl]-[1,2,4]oxadiazol-5-yl}-thiophene-2-sulfonic acid amide] | 236.5 |

| SMILES | melting point [°C] |
| --- | --- |
| FC(F)(F)c1cc(-c2ccc(Cl)cc2)nc(-n2cnc(-c3ccncc3)c2)n1 [Example 25, 4-(4-Chloro-phenyl)-2-(4-pyridin-4-yl-imidazol-1-yl)-6-trifluoromethyl-pyrimidine] | 269 |
| Nc1ccc(-c2cccc(-c3nc(-c4ccc(Cl)cc4)cc(C(F)(F)F)n3)c2)cn1 [Example 27, 5-{3-[4-(4-Chloro-phenyl)-6-trifluoromethyl-pyrimidin-2-yl]-phenyl}-pyridin-2-ylamine] | 171 |
| FC(F)(F)c1cc(-c2ccc(Cl)cc2)nc(-c2nc(-c3ccncc3)no2)n1 [Example 28, 4-(4-Chloro-phenyl)-2-(3-pyridin-4-yl-[1,2,4]oxadiazol-5-yl)-6-trifluoromethyl-pyrimidine] | 187.5 |
| FC(F)(F)c1cc(-c2ccc(Cl)cc2)nc(-c2nc(-c3cccnc3)no2)n1 [Example 29, 4-(4-Chloro-phenyl)-2-(3-pyridin-3-yl-[1,2,4]oxadiazol-5-yl)-6-trifluoromethyl-pyrimidine] | 168.5 |
| Nc1ccc(-c2cc(-c3nc(-c4ccc(Cl)cc4)cc(C(F)(F)F)n3)ccn2)cn1 [Example 30, 4-[4-(4-Chloro-phenyl)-6-trifluoromethyl-pyrimidin-2-yl]-[2,3′]bipyridinyl-6′-ylamine] | 227 |
| Nc1ccc(-c2cc(-c3nc(-c4ccc(C(F)(F)F)cc4)cc(C(F)(F)F)n3)ccn2)cn1 [Example 31, 4-[4-Trifluoromethyl-6-(4-trifluoromethyl-phenyl)-pyrimidin-2-yl]-[2,3′]bipyridinyl-6′-ylamine] | 226 |
| Nc1ccc(-c2cn(-c3nc(-c4ccc(C(F)(F)F)cc4)cc(C(F)F)n3)cn2)cn1 [Example 32, 5-{1-[4-Difluoromethyl-6-(4-trifluoromethyl-phenyl)-pyrimidin-2-yl]-1H-imidazol-4-yl}-pyridin-2-ylamine] | 253.5 |
| Nc1ccc(-c2noc(-c3nc(-c4ccc(C(F)(F)F)cc4)cc(C(F)F)n3)n2)cn1 [Example 36, 5-{5-[4-Difluoromethyl-6-(4-trifluoromethyl-phenyl)-pyrimidin-2-yl]-[1,2,4]oxadiazol-3-yl}-pyridin-2-ylamine] | 219 |
| FC(F)(F)c1ccc(-c2cc(C(F)(F)F)nc(-c3cccnc3)n2)cc1 [Example 37, 2-Pyridin-3-yl-4-trifluoromethyl-6-(4-trifluoromethyl-phenyl)-pyrimidine] | 134 |
| FC(F)c1cc(-c2ccc(C(F)(F)F)cc2)nc(-c2ccncc2)n1 [Example 38, 4-Difluoromethyl-2-pyridin-4-yl-6-(4-trifluoromethyl-phenyl)-pyrimidine] | 132.5 |
| NS(=O)(=O)c1cccc(-c2noc(-c3nc(-c4ccc(C(F)(F)F)cc4)cc(C(F)F)n3)n2)c1 [Example 40, 3-{5-[4-Difluoromethyl-6-(4-trifluoromethyl-phenyl)-pyrimidin-2-yl]-[1,2,4]oxadiazol-3-yl}-benzenesulfonamide] | 217.5 |
| Nc1ccc(-c2cccc(-c3nc(-c4ccc(C(F)(F)F)cc4)cc(C(F)F)n3)c2)cn1 [Example 41, 5-{3-[4-Difluoromethyl-6-(4-trifluoromethyl-phenyl)-pyrimidin-2-yl]-phenyl}-pyridin-2-ylamine] | 191 |
| Cc1cc(-c2ccc(Cl)cc2)nc(-n2cnc(-c3ccc(N)nc3)c2)n1 [Example 43, 5-{1-[4-(4-Chloro-phenyl)-6-methyl-pyrimidin-2-yl]-1H-imidazol-4-yl}-pyridin-2-ylamine] | 206 to 208 |
| Cc1cc(-c2ccc(Cl)cc2)nc(-n2cnc(-c3cccnc3)c2)n1 [Example 44, 4-(4-Chloro-phenyl)-6-methyl-2-(4-pyridin-3-yl-imidazol-1-yl)-pyrimidine] | 179 to 181 |
| Cc1cc(-c2ccc(Cl)cc2)nc(-n2cnc(-c3cnc(N)nc3)c2)n1 [Example 45, 5-{1-[4-(4-Chloro-phenyl)-6-methyl-pyrimidin-2-yl]-1H-imidazol-4-yl}-pyrimidin-2-ylamine] | 264 to 266 |
| Cc1cc(-c2ccc(C(F)(F)F)cc2)nc(-n2cnc(-c3ccc(N)nc3)c2)n1 [Example 46, 5-{1-[4-Methyl-6-(4-trifluoromethyl-phenyl)-pyrimidin-2-yl]-1H-imidazol-4-yl}-pyridin-2-ylamine] | 230 to 232 |
| Cc1cc(-c2ccc(C(F)(F)F)cc2)nc(-n2cnc(-c3cnc(N)nc3)c2)n1 [Example 47, 5-{1-[4-Methyl-6-(4-trifluoromethyl-phenyl)-pyrimidin-2-yl]-1H-imidazol-4-yl}-pyrimidin-2-ylamine] | 267 to 269 |
| Cc1cc(-c2ccc(C(F)(F)F)cc2)nc(-n2cnc(-c3cccnc3)c2)n1 [Example 48, 4-Methyl-2-(4-pyridin-3-yl-imidazol-1-yl)-6-(4-trifluoromethyl-phenyl)-pyrimidine] | 208 to 210 |
